In general, IC50 refers to the concentration that inhibits the measured activity by half.

Test [1] addresses T1, NPY Y1 receptor (Homo sapiens, UniProt P25929).
T1 construct: membranes prepared from Y1-expression cells (human neuroblastoma, SK-N-MC); endogenous in cells; host or cells: SK-N-MC human neuroblastoma cells (membranes)
T1 sequence (P25929 1-384): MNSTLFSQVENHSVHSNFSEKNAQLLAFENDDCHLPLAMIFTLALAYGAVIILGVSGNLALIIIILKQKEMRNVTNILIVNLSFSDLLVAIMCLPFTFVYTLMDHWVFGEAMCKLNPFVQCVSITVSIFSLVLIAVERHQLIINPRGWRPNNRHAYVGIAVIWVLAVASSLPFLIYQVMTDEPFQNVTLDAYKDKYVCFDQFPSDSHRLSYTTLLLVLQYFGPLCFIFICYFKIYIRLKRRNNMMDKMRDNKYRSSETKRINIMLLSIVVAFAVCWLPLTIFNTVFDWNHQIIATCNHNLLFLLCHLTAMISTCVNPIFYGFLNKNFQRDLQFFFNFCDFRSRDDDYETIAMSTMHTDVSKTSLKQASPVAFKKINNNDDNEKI
As to the kind of experiment: Affinity for NPY Y1 receptor (membranes from SK-N-MC cells). The following applies: membranes from Y1-expression cells (human neuroblastoma, SK-N-MC); read-out: Binding IC50 for NPY Y1 receptor. As to the method:
(§1) The membranes prepared from the above CHO cells expressing NPY Y5 receptor, the compound of the present invention and 30,000 cpm [^125I] peptide YY (60 pM of final concentration: Amersham) were incubated in the assay buffer (20 mM HEPES-Hanks buffer containing 0.1% bovine serum albumin, pH 7.4) at 25° C. for 2 hours, and then the mixture was filtered with a glassfilter GF/C treated with polyethyleneimine. After the glassfilter was washed with 50 mM Tris-HCl buffer (pH 7.4), the radioactivity on the filter was measured with a gamma counter. The non-specific binding was detected in the presence of 200 nM of peptide YY. The 50% inhibitory concentration of the test compound against the specific peptide YY binding (IC50 value) was calculated (Inui, A. et al. Endocrinology 131, 2090-2096 (1992)).
(§2) Using the membranes prepared from Y1-expression cells (human neuroblastoma, SK-N-MC) and the membranes prepared from Y2-expression cells (human neuroblastoma, SMS-KAN), the experiment was carried out in a similar way as Experiment 1 to determine the affinity for NPY Y1 receptor and NPY Y2 receptor.

The target in test [2] is T2, human NPY Y5 receptor (Homo sapiens, UniProt Q15761).
T2 construct: expressed in transfected cells
T2 sequence (Q15761 1-445): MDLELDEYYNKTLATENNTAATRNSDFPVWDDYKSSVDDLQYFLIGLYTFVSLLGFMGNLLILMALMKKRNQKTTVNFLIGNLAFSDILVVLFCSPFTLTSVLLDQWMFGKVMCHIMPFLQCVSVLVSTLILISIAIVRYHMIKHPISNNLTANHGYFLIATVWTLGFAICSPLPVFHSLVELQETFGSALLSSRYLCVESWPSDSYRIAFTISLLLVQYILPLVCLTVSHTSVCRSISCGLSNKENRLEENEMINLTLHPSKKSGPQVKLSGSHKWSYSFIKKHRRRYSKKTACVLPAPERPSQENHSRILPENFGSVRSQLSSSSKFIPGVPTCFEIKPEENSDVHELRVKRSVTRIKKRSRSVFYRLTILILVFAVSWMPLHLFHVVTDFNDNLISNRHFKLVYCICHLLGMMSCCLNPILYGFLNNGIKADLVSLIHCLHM
As to the kind of experiment: Affinity for NPY Y5 receptor ([125I] peptide YY binding, CHO cell membranes). The following applies: inhibition of specific [125I] peptide YY binding, membranes of CHO cells expressing NPY Y5 receptor. In outline: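 Membranes from CHO cells stably expressing human NPY Y5 receptor incubated with test compound and [125I] peptide YY (60 pM final) in HEPES-Hanks buffer with 0.1% BSA, pH 7.4, 25° C for 2 hours. Filter-bound radioactivity counted; non-specific binding with 200 nM peptide YY; IC50 against specific binding calculated.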

Test [3] addresses T3, NPY Y2 receptor (Homo sapiens, UniProt P49146).
T3 construct: membranes prepared from Y2-expression cells (human neuroblastoma, SMS-KAN); endogenous in cells; host or cells: SMS-KAN human neuroblastoma cells (membranes)
T3 sequence (P49146 1-381): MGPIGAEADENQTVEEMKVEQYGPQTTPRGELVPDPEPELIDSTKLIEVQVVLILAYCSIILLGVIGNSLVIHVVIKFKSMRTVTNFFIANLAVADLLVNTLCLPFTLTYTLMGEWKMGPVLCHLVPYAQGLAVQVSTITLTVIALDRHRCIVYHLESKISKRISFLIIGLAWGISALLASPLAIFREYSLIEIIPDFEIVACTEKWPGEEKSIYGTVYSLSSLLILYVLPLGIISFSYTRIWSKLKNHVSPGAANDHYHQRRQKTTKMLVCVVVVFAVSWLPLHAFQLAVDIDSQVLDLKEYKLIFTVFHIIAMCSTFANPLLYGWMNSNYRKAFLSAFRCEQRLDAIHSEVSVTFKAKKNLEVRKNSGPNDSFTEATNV
In words: Affinity for NPY Y2 receptor (membranes from SMS-KAN cells). The following applies: membranes from Y2-expression cells (human neuroblastoma, SMS-KAN); read-out: Binding IC50 for NPY Y2 receptor. On the procedure: as §1, §2

Test [4] deals with T2, human NPY Y5 receptor. In words: cAMP production inhibitory activity in CHO cells. The test is classed as cell-based. The following applies: against 50 nM NPY inhibition of forskolin stimulated cAMP, CHO cells expressing human NPY Y5 receptor. In outline: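 CHO cells expressing human NPY Y5 receptor preincubated 20 min at 37 °C with 2.5 mM IBMX, then with compound for 5 min. Stimulated with 50 nM NPY plus 10 μM forskolin for 30 min. Reaction stopped with 1N HCl; supernatant cAMP measured by EIA.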

With `CC(C)(C)S(=O)(=O)NC1CCC(C(=O)Nc2ccc(C(F)(F)F)cn2)CC1` (centres unmarked) [Ia-178], the IC50 in test [1] was no less than 100000 nM; in test [2], 4.6 nM; in test [3], no less than 100000 nM; in test [4] it was 16 nM.
With `Cc1cc(NC(=O)C2CCC(NS(=O)(=O)C(C)C)CC2)ccc1N1C[C@@H](C)O[C@@H](C)C1` (some centres unmarked) [Ia-50], the concentration for half-maximal inhibition (IC50) in test [1] was no less than 100000 nM; in test [2], 1.7 nM; in test [3] it was no less than 100000 nM; in test [4], 24 nM.
On to `CC(C)S(=O)(=O)NC1CCC(C(=O)Nc2cccc(OC3CCCC3)c2)CC1` (centres unmarked) [Ia-199], for which the half-maximal inhibitory concentration (IC50) is no less than 100000 nM in test [1], 0.11 nM in test [2], no less than 100000 nM in test [3] and 1.6 nM in test [4].
As to `CC(C)(C)S(=O)(=O)NC1CCC(C(=O)Nc2ccc(Cl)c(Cl)c2)CC1` (centres unmarked) [Ia-32], the IC50 was no less than 100000 nM in test [1], 0.52 nM in test [2], no less than 100000 nM in test [3] and 6.7 nM in test [4].
For the compound `Cc1cc(NC(=O)[C@H]2CC[C@H](NS(=O)(=O)C(C)(C)C)CC2)ccc1N1C[C@@H](C)O[C@@H](C)C1` [Ia-22], the IC50 in test [1] is no less than 100000 nM; in test [2], 3.1 nM; in test [3] it was no less than 100000 nM; in test [4] it was 38 nM.
As to `CC(C)(C)S(=O)(=O)NC1CCC(C(=O)Nc2cccc(F)c2)CC1` (centres unmarked) [Ia-20], the IC50 was no less than 100000 nM in test [1], 4.9 nM in test [2], no less than 100000 nM in test [3] and 100 nM in test [4].
Take `CC(C)NC(=O)c1cccc(NC(=O)C2CCC(NS(=O)(=O)C(C)(C)C)CC2)c1` (centres unmarked) [Compound I-205]: the IC50 in test [1] is no less than 100000 nM; in test [2] it was 2.9 nM; in test [3], no less than 100000 nM; in test [4], 17 nM.
Take `Cc1cc(N2C[C@@H](C)O[C@@H](C)C2)ccc1NC(=O)C1CCC(NS(=O)(=O)C(C)C)CC1` (some centres unmarked) [Ia-54]: the half-maximal inhibitory concentration (IC50) was no less than 100000 nM in test [1], 0.44 nM in test [2], no less than 100000 nM in test [3] and 9 nM in test [4].
Turning to `CC(C)(C)S(=O)(=O)NC1CCC(C(=O)Nc2ccc(OC(F)(F)F)cc2)CC1` (centres unmarked) [Ia-17], the IC50 was no less than 100000 nM in test [1], 0.1 nM in test [2], no less than 100000 nM in test [3] and 1.9 nM in test [4].
For the compound `C[C@@H]1CN(c2ccc(NC(=O)CCCCNS(=O)(=O)C(C)(C)C)cc2)C[C@H](C)O1` [Ia-5], the IC50 in test [1] was no less than 100000 nM; in test [2], 1.6 nM; in test [3], no less than 100000 nM; in test [4], 43 nM.
For `CC(C)(C)S(=O)(=O)NC1CCC(C(=O)Nc2ccc(N3CCCC3)cc2)CC1` (centres unmarked) [Compound I-49], the IC50 is no less than 100000 nM in test [1], 0.4 nM in test [2], no less than 100000 nM in test [3] and 8.1 nM in test [4].
On to `Cc1cc(=O)oc2cc(NC(=O)C3CCC(NS(=O)(=O)C(C)(C)C)CC3)ccc12` (centres unmarked) [Compound I-66], for which the IC50 in test [1] was no less than 100000 nM; in test [2], 1.5 nM; in test [3] it was no less than 100000 nM; in test [4], 30 nM.
With `CCn1c2ccccc2c2cc(NC(=O)C3CCC(NS(=O)(=O)C(C)(C)C)CC3)ccc21` (centres unmarked) [Compound I-46], the IC50 is no less than 100000 nM in test [1], 0.8 nM in test [2], no less than 100000 nM in test [3] and 10.5 nM in test [4].
Regarding `CN(C)c1cccc(NC(=O)C2CCC(NS(=O)(=O)C(C)(C)C)CC2)c1` (centres unmarked) [Compound I-69], the IC50 in test [1] was no less than 100000 nM; in test [2] it was 3.8 nM; in test [3], no less than 100000 nM; in test [4] it was 13 nM.

The record behind these values is US7265130B2, “NPY Y5 antagonist” (Shionogi & Co., Ltd., priority 1999, dated 2007).
